{
  "source": "the supplement of paper PMC10307832",
  "test_in_all_cases": "relative viability (nuclei count vs DMSO), 5 days (fraction); higher = more cells survive",
  "key": {"Ruxolitinib + Foretinib": {"compound": "N#CC[C@H](C1CCCC1)n1cc(-c2ncnc3[nH]ccc23)cn1 [Ruxolitinib] + COc1cc2c(Oc3ccc(NC(=O)C4(C(=O)Nc5ccc(F)cc5)CC4)cc3F)ccnc2cc1OCCCN1CCOCC1 [Foretinib] (partner 0.25 µM)", "procedure,_shortened": "(§1)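 A single step with final 0.05% Triton X-100, 1% formaldehyde and 1 ug/ml Hoechst fixed the cells and stained nuclei 5 days after treatment. Lung cancer cell lines in 1536-well plates had been treated by pin tool the day after seeding with one drug alone or a fixed anchor-drug dose plus five library-drug doses (not always all listed) in √10 steps, and nuclei were counted on 4× images. Relative viability is the ratio of nuclei in treated wells to nuclei in vehicle wells, taken as the median of duplicate plates.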"}, "Vismodegib + Dasatinib": {"compound": "CS(=O)(=O)c1ccc(C(=O)Nc2ccc(Cl)c(-c3ccccn3)c2)c(Cl)c1 [Vismodegib] + Cc1nc(Nc2ncc(C(=O)Nc3c(C)cccc3Cl)s2)cc(N2CCN(CCO)CC2)n1 [Dasatinib] (partner 0.075 µM)", "procedure,_shortened": "as §1"}, "Vismodegib + Decitabine": {"compound": "CS(=O)(=O)c1ccc(C(=O)Nc2ccc(Cl)c(-c3ccccn3)c2)c(Cl)c1 [Vismodegib] + Nc1ncn([C@H]2C[C@H](O)[C@@H](CO)O2)c(=O)n1 [Decitabine] (partner 2 µM)", "procedure,_shortened": "as §1"}, "VE-821 + Tozasertib": {"compound": "CS(=O)(=O)c1ccc(-c2cnc(N)c(C(=O)Nc3ccccc3)n2)cc1 [VE-821] + Cc1cc(Nc2cc(N3CCN(C)CC3)nc(Sc3ccc(NC(=O)C4CC4)cc3)n2)n[nH]1 [Tozasertib] (partner 0.1 µM)", "procedure,_shortened": "as §1"}},
  "data": [
    {"cell line": "UMC-11", "values": [
      {"measurement": "relative viability", "setting": "Ruxolitinib + Foretinib; first compound 0.08 µM", "value": 1.05},
      {"measurement": "relative viability", "setting": "Ruxolitinib + Foretinib; first compound 0.253 µM", "value": 1.07},
      {"measurement": "relative viability", "setting": "Ruxolitinib + Foretinib; first compound 0.8 µM", "value": 1.28},
      {"measurement": "relative viability", "setting": "Ruxolitinib + Foretinib; first compound 2.53 µM", "value": 1.07},
      {"measurement": "relative viability", "setting": "Ruxolitinib + Foretinib; first compound 8 µM", "value": 1.02},
      {"measurement": "relative viability", "setting": "Vismodegib + Dasatinib; first compound 0.08 µM", "value": 0.434},
      {"measurement": "relative viability", "setting": "Vismodegib + Dasatinib; first compound 0.253 µM", "value": 0.471},
      {"measurement": "relative viability", "setting": "Vismodegib + Dasatinib; first compound 0.8 µM", "value": 0.423},
      {"measurement": "relative viability", "setting": "Vismodegib + Dasatinib; first compound 2.53 µM", "value": 0.444},
      {"measurement": "relative viability", "setting": "Vismodegib + Dasatinib; first compound 8 µM", "value": 0.418},
      {"measurement": "relative viability", "setting": "Vismodegib + Decitabine; first compound 0.08 µM", "value": 0.623},
      {"measurement": "relative viability", "setting": "Vismodegib + Decitabine; first compound 0.253 µM", "value": 0.579},
      {"measurement": "relative viability", "setting": "Vismodegib + Decitabine; first compound 0.8 µM", "value": 0.489},
      {"measurement": "relative viability", "setting": "Vismodegib + Decitabine; first compound 2.53 µM", "value": 0.457},
      {"measurement": "relative viability", "setting": "Vismodegib + Decitabine; first compound 8 µM", "value": 0.53},
      {"measurement": "relative viability", "setting": "VE-821 + Tozasertib; first compound 0.08 µM", "value": 0.203},
      {"measurement": "relative viability", "setting": "VE-821 + Tozasertib; first compound 0.253 µM", "value": 0.195},
      {"measurement": "relative viability", "setting": "VE-821 + Tozasertib; first compound 0.8 µM", "value": 0.223},
      {"measurement": "relative viability", "setting": "VE-821 + Tozasertib; first compound 2.53 µM", "value": 0.2},
      {"measurement": "relative viability", "setting": "VE-821 + Tozasertib; first compound 8 µM", "value": 0.203}
    ]}
  ]
}
